Source: patent US4265901A, “2-Oxybenzimidazoline compounds” (priority 1979, dated 1981)
Structures can show the parent of a compound that is named as a salt.

Assays:
[1] = system: adult housefly; test: Adult houseflies fed on serum of dosed guinea pigs; type: in vivo, Musca domestica; conditions: guinea pig, serum at 24 hours
Protocol: (§1) Representative compounds of the present invention were evaluated against larvae of blowfly (Phormia regina) and against adult housefly (Musca domestica). In these evaluations, the candidate compound was administered to each of two male guinea pigs weighing from about 400 grams to about 1000 grams. Administration was via the intraperitoneal route, the compound having been formulated in sesame oil. At twenty-four hours following administration of the compound, blood was withdrawn from the guinea pigs. The serum portion was isolated and blowfly larvae and adult houseflies were fed on the serum. For the blowfly assay, 10 ml. of serum were placed in a test tube with a wick onto which 50 blowfly larvae were placed. The covered test tube was incubated at 27° C. for 24 hours, at which time efficacy of the candidate compound was determined as the percent mortality of the blowfly larvae, adjusted by normal mortality in a control, and reported according to the following rating scale:
(§2) Percent mortality was determined separately for each guinea pig.
(§3) For the adult housefly test, 10 ml. of serum were employed to saturate a wick which was placed in a petri dish. Twenty-five chilled houseflies were placed in the dish which was then incubated for 24 hours at 27° C. and 50% relative humidity. After the end of the twenty-four hours, the efficacy of the candidate compound was determined as the percent mortality of housefly, adjusted as for blowfly by normal mortality in a control and reported according to the same scale as above.

[2] = system: blowfly larvae; test: Blowfly larvae fed on serum of dosed guinea pigs; type: in vivo, Phormia regina; conditions: guinea pig, serum at 24 hours
Protocol: as §1, §2

[3] = system: adult housefly; test: Efficacy against adult housefly, calves jugular infusion (Example 18); type: in vivo, Musca domestica; conditions: Evaluation I, calf 988, jugular infusion 0.66 mg/kg/day to day 10; day/hours per line
Protocol: as §3
(§4) On each day of the evaluation, immediately preceding that day's injection, a sample of blood was withdrawn from each calf. The concentration of the compound in the blood was determined; and the efficacy of the compound against adult housefly and blowfly larvae was assayed by the method described in Example 15. Efficacy was reported, however, as the percent of blowfly larvae or adult housefly which was killed. […]
Three evaluations were conducted sequentially with the compound of Example 2, 2-hydroxy-2-(1,1,2,2-tetrafluoroethyl)-4-nitro-6-(trifluoromethyl)benzimidazoline, sodium salt, administered daily to calves by jugular infusion of a solution of the compound in distilled water. As described in the preceding example, blood samples were withdrawn and analyzed for concentration of the compound and efficacy against adult housefly and blowfly larvae.

[4] = system: adult housefly; test: Efficacy against adult housefly, calves intravenous injection (Example 17); type: in vivo, Musca domestica; conditions: daily i.v. 0.5 to 1.5 mg/kg escalating, day per line
Protocol: as §3
A group of three calves each weighing about 220 kilograms was employed. The compound of Example 2, 2-hydroxy-2-(1,1,2,2-tetrafluoroethyl)-4-nitro-6-(trifluoromethyl)benzimidazoline, sodium salt, was dissolved in distilled water and the resulting solution was administered by intravenous injection. Rates of administration increased throughout the evaluation period, from 0.5 to 1.5 mg./kg. of body weight, with each dose supplied for a period of 5 days (except the 1.5 mg./kg. dose, which was administered for 6 days).
as §4, with “15.” for “15. Efficacy was reported, however, as the percent of blowfly larvae or adult housefly which was killed.”

SMILES | Efficacy Rating, Adult Housefly ([1]; 1 mg./kg. i.p.) | Efficacy Rating, Adult Housefly ([1]; 5 mg./kg. i.p.) | Efficacy Rating, Blowfly Larvae ([2]; 1 mg./kg. i.p.) | Efficacy Rating, Blowfly Larvae ([2]; 5 mg./kg. i.p.) | % Efficacy, Adult Housefly [3] | % Efficacy, Adult Housefly ([4]; calf 987) | % Efficacy, Adult Housefly ([4]; calf 991)
O=[N+]([O-])c1cc(Cl)cc2c1NC(O)(C(F)F)N2 (stereo not shown) [Example 5, 2-Hydroxy-2-(Difluoromethyl)-4-Nitro-6-Chlorobenzimidazoline, Calcium Salt] | 1 (<50% dead) | 1 (<50% dead) | 0 (none dead) | 0 (none dead) |  |  | 
O=[N+]([O-])c1cc(C(F)(F)F)cc2c1NC(O)(C(F)(F)C(F)F)N2 (stereo not shown) [Example 2, 2-Hydroxy-2-(1,1,2,2-Tetrafluoroethyl)-4-Nitro-6-(Trifluoromethyl)Benzimidazoline, Sodium Salt, and Hydrate] |  |  |  |  | 100% | 100% | 100%
